Laboratory results reported in patent US20210052600A1, “THERAPEUTIC AGENTS FOR STRESS URINARY INCONTINENCE AND INCOTINENCE OF FECES” (Takeda Pharmaceutical Company Limited, priority 2017, published 2021).

Tests used:
[1] = rat, in vivo, 2.5 mg/kg
Description: (§1) Ten female rats of SD strain were anesthetized with isoflurane. In order to secure the same conditions as those for drug-administered animals, their spinal cord was transected at the T8-T9 (the eighth thoracic cord—the ninth thoracic cord) level. Then, a cannula for blood collection was inserted into the femoral artery. […] These drugs were each dissolved in 0.5% MC. Thirty minutes after oral administration, up to 250 μL of blood was collected from the femoral artery or the tail vein and treated with heparin. The collected blood was immediately cooled on ice and centrifuged under conditions involving 3,000 rpm and 4° C. for 10 minutes to obtain plasma. The plasma samples were stored under conditions of −80° C. until drug quantification.
(§2) After thawing of the plasma samples, the internal standard compound was added thereto, and the mixture was then centrifuged under conditions of 5,250 rpm. The drug contained in 60 μL of the supernatant was quantified by LC-MS/MS.

[2] = Plasma concentrations in rats 30 minutes after oral administration (effective plasma concentration at LPP10); conditions: rat; measured concentration multiplied by ratio between dosage used and LPP10
Description: as §1, §2

[3] = Comparison of plasma concentrations for urethra-closing effect and anti-obesity effect (analysis of Examples 1-9 and literature); conditions: free form; extrapolated, 3.3-fold less than rat 670 ng/mL

In the case of `CC(C)N(C)c1cnc2c(n1)OCCNC2.Cl` [Compound A, N-methyl-N-(1-methylethyl)-6,7,8,9-tetrahydropyrazino[2,3-f][1,4]oxazeine-3-amine], the “plasma concentration 30 minutes after oral administration” value [1] is reported as 94.8 ± 24.1 ng/mL, the “plasma concentration at LPP10” value [2] is reported as 61 ng/mL and the “average plasma concentration in a day (steady state) giving a body weight lowering effect greater than placebo by 3.8% in humans” value [3] is reported as 203 ng/mL.
